Measurements published in patent publication US20060063810A1, “Combination treatment for impaired motor function in parkinson's disease” (priority 2003, published 2006).

Assays:
[1] = tested on: parkinsonian patients; conditions: in vivo; cited from earlier work
[2] = tested on: patients suffering from different types of tremors; conditions: human, in vivo; cited from earlier work
[3] = tested on: single Parkinson's patient; conditions: citalopram added to the anti-Parkinson's drug regime of a single patient; cited from earlier work
[4] = tested on: Parkinson's disease; conditions: in vivo; cited from earlier work
[5] = tested on: dyskinesia; conditions: normal therapeutic (anti-anxiolytic) levels; cited from earlier work
[6] = tested on: HD patients; conditions: cited from earlier work
[7] = tested on: Parkinson Disease patients suffering from severe bradykinesia and motor fluctuations (dyskinesias) induced by L-Dopa therapy; test: Double-blind, randomized, placebo-controlled clinical study of AMN lead-in followed by add-on CIT (Example 9, Method B); type: in vivo, human; conditions: patients 1, 2 and 4; first four visits; three weeks of treatment with amantadine only
Experimental: The study is conducted in a double-blind, randomized, placebo-controlled, parallel-group design, with 2 treatment phases: 3 weeks open label, up -titration amantadine lead-in phase, follow by a 6 weeks add-on citalopram phase; performed in Parkinson Disease patients suffering from severe bradykinesia and motor fluctuations—dyskinesias—induced by L-Dopa therapy.
Amantadine Hydrochloride: 50 mg arnantadine hydrochloride is administered as a b.i.d. regimen during 1 week. Up titration to 100 mg amantadine hydrochloride administered as a b.i.d. regimen during the second week. Up titration to 150 mg amantadine hydrochloride administered as a b.i.d. regimen during the third week. […]
The total score for UPDRS subscale IV is employed to evaluate the severity and characteristics of L-Dopa induced dyskinesias. The total score is calculated as the sum of all scores assigned in the dyskinesia items: 32, 33, 34 and 35; the clinical fluctuations items (calculated as the sum of all scores assigned in items 36, 38 and 39). Items 32, 33, 34 and 35 are recorded according to historical information and item 33 is also modified by office examination. […]
The total score of the subscale III of the UPDRS is employed to examine parkinsonian symptoms. Motor functionality is assessed as the total motor score calculated as the sum of all scores assigned in items 18, 19, 20, 21, 22, 23, 24, 25, 26, 27, 28, 29, 30 and 31. […]

Structure (SMILES): CC(C)(C)N1CCC(c2ccccc2)(c2ccccc2)CC1 [Budipine, 1-Tert-butyl-4,4-diphenylpiperidine]
- akinesia, rigidity, and tremor [1]: significantly reduces akinesia, rigidity, and tremor
- time to optimal effects after starting treatment [1]: 4-6 weeks

Structure (SMILES): O=c1n(CCCN2CCN(c3cccc(Cl)c3)CC2)nc2ccccn12 [trazodone]
- tremors [2]: significantly reduced tremors

Structure (SMILES): CN(C)CCCC1(c2ccc(F)cc2)OCc2cc(C#N)ccc21 (stereo not shown) [citalopram]
- motor symptoms [3]: worsened their motor symptoms

Structure (SMILES): O=C1CC2(CCCC2)CC(=O)N1CCCCN1CCN(c2ncccn2)CC1 [buspirone]
- treatment of Parkinson's disease [4]: ineffective
- effect on dyskinesia [5]: no different than placebo

Structure (SMILES): NC12CC3CC(CC(C3)C1)C2 [amantadine]
- neuropsychologic and psychiatric assessments ([6]; after 6 and 12 months of therapy): No changes
- dyskinesias ([6]; eight HD patients, oral amantadine 100 mg tid, unblinded, 1-year period, p<0.01): significant reduction of dyskinesias
- UPDRS III scores (motor performance) [7]: improvement in motor performance
- UPDRS IV scores (severity and characteristics of L-Dopa induced dyskinesias, motor fluctuations) [7]: improvement in motor fluctuations
